Measured values: patent EP1212309B1, “CASPASE INHIBITOR” (LG Chem Investment, Ltd., priority 1999, dated 2001)

Legend:
PARP cleavage = assay: Con A-treated mouse liver: Western blotting of PARP cleavage; format: in vivo; conditions: liver lysate of Con A-treated mice, various doses, Western blot
Procedure: In this experiment, the cleavage of PARP was identified by the appearance on Western blot analysis of an 85 kDa-cleavage product in hepatic cell lysate obtained from mice treated with Con A and various doses of the compound of formula (I).
Freshly harvested livers treated with Con A or PBS together with various doses of compound 33 were rinsed in cold PBS and homogenized into three volumes per weight of cold PBS containing 1% Nonidet P-40, 0.1 % SDS, 1 mM PMSF, and protease inhibitor cocktail tablet Complete™ (Boehnger Mannheim, used according to manufacturer's instruction). The homogenates were incubated on ice for 30 min. Samples were then centrifuged at 16,000 x g for 30 min at 4°C. Supernatants were transferred to fresh tubes and centrifuged for additional 30 min. Harvested lysates were precleared by incubating with protein G-sepharose (Pharmacia, Uppsala, Sweden) at 4 °C for overnight, gently shaking. Supernatants were harvested by centrifugation at 1000 x g for 30 sec. at 4 °C and separated on 7 % SDS-polyacrylamide gel and transferred to nitrocellulose membrane. Blots were blocked for 1 hr at room temperature in PBS containing 5% skimmed milk and 0.1% Tween 20 under gentle shaking. Membranes were then incubated overnight with 1:1000 diluted monoclonal anti-PARP antibody (Pharmingen) under gentle shaking. […]

WI38 cells = assay: Protection from IFNγ and anti-Fas antibody-induced apoptosis (XTT); format: cell-based, human; conditions: 100% when Fas antibody was not treated; for viability ratio: WI38 cells
Procedure: WI38 cells (human embryonal lung fibroblast) were grown in a medium containing DMEM-10% FBS within 10cm diameter dishes until reaching at confluency. The cells were seeded into a 24-well plate at day 1 and incubated overnight while the volume of medium was maintained to 400µℓ. […] At day 3, each 100 µℓ of test compound was added to the cells after diluting the 10mM stock compound in DMSO to final concentrations of 50, 10, 2, and 0.4 µ M, respectively. The cells were incubated for 2 hrs in order for allowing the compound to enter into the cells and then treated with 40ng/well of anti-Fas antibody(apoptosis was induced 2 hrs after antibody was treated and the incubation was continued overnight). The control was not treated with Fas antibody. […] After coloring, 100-200µℓ of the supernatant was transferred to a 96-well plate and the absorbance at 490 nm was read with ELISA plate reader. For the blank, XTT solution was added to the well containing the medium only. Plotting was determined by comparing with the control group (100% when Fas antibody was not treated).

[1] = tested on: Con A-induced acute hapatitis mice; assay: Con A-induced acute hepatitis in mice: plasma aminotransferase activity; format: in vivo, Balb/c mice
Procedure: Female 6-week-old Balb/c mice (Charles River Laboratory, Osaka, Japan) were kept at 22 °C and 55% relative humidity in a 12-h day/night rhythm with free access to food and water. Con A was dissolved in pyrogen-free saline to a concentration of 2.5 mg/ml and was injected via the tail vein in an amount of 20mg/kg based on Con A. The animals were i.p. injected twice with compound 33 dissolved into a vehicle which consists of olive oil and 10% DMSO, or a vehicle alone, at 1 hr before and 4h after Con A injection. Animals were sacrificed by cervical dislocation at 24 hrs after Con A injection to obtain liver and blood samples.
Blood samples obtained at step 1 were collected at 24h after Con A injection. Plasma AST and ALT activity were measured using Autokit (Youngdong Pharmaceutical Co., Seoul, Korea) following manufacturer's instruction.

[2] = tested on: Recombinant human caspase; assay: Inhibition of caspase activity in cell free system (chromogenic pNA substrates); format: biochemical; conditions: 100 µM compound, caspase-1, -2, -3, -4, -6, -7, -8 and -9, 200 µM chromogenic substrate, 37°C
Procedure: The pharmacological efficacy of the compound according to the present invention was evaluated by the following experiments. Con A was purchased from Boehringer Mannheim GmbH (Mannheim, Germany). Peptide-based substrates of caspases (Ac-YVAD-pNA for caspase-1, Ac-VDVAD for caspase-2, Ac-DEVD-pNA for caspase-3, 7, 8, and 9, Ac-LEVD-pNA for caspase-4, and Ac-VEID-pNA for caspase-6) and peptide-based caspase inhibitors (Ac-DEVD-fmk, z-VAD-CHO) were purchased from Alexis Co. (San Diego, CA). Ac-DEVD-CHO and z-DEVD-cmk were purchased from Bachem; Anti Fas antibody was purchased from Oncor (Cat#A8050); WI38 cell was available from ATCC; IFN-gamma was purchased from LG Pharmaceuticals (Korea). All cell culture-media and supplements were purchased from Gibco BRL (Tsuen Wan, Hong Kong) unless mentioned otherwise. […]
Caspase activity was tested by measuring proteolytic cleavage of peptide-based chromogenic substrate by each enzyme. […] Aliquots of the enzyme (2 µℓ containing catalytic activity of 0.2 absorbance at 405 nm/h) were mixed with 150 µℓ of 200 µM chromogenic substrate in the presence or absence of 100 µM compound 33 in 96-well plates. […] The absorbance of enzymatically released pNA was measured discontinuously at 405 nm in a microplate reader for I hr. The caspase activity was calculated from initial velocity (mean± SE)(n=4, in which n represents the number of repeated experiment).

[3] = tested on: hepatocytes in ConA-treated mouse liver; assay: Con A-treated mouse liver: histologic examination and detection of apoptosis (H&E, TUNEL); format: in vivo; conditions: ConA-treated mice, compound 33 4, 20, 100mg/kg
Procedure: The present inventors estimated the prevalence of apoptotic cells in the mouse liver to certify the apoptosis-blocking effect of the compound of the present invention specifically in hepatocytes. Mice were treated ConA in the presence or absence of various dosages of compound 33 [A and G: ConA and vehicle treatment, B and H: ConA and compound 33 4mg/kg treatment, C and I: ConA and compound 33 20mg/kg treatment, D and J: ConA and compound 33 100mg/kg treatment] to prepare frozen liver sections. Also, mice were treated with PBS and vehicle (E and K), or PBS and compound 33 100mg/kg (F and L) to prepare frozen liver sections. Freshly excised mouse liver was immediately immersed in 25 % sucrose solution at 4 °C for overnight, then frozen in liquid nitrogen, and cryosectioned into 4 µm.
For histological examination, liver sections were fixed in 1% buffered paraformaldehyde and stained with hematoxilin & eosin (Fig. 6A to F). To detect apoptotic cells in liver, frozen liver was stained using an ApopTag in situ apoptosis peroxidase detection kit (terminal deoxynucleotidyl transferase-mediated dUTP nick end labeling: TUNEL assay) (Oncor, Gaithersburg, MD) and DAKO liquid DAB (DAKO, Carpinteria, CA)(Fig. 6G to L). Staining was conducted according to manufacturer's instruction. After completion of staining, the samples were observed under an optical microscope. […]

Structure (SMILES): CC(C)[C@H](NC(=O)c1cccc2ccccc12)C1=NOC(Cc2ccccc2)(C(=O)N[C@@H](CC(=O)O)C(=O)COC(=O)c2c(Cl)cccc2Cl)C1 (stereo partly drawn) [Compound 33, (3S)-3-{3-[2-methyl-(1S)-1-(1-naphthalenecarbonylamino)-propyl]-5-phenylmethyl-4,5-dihydro-isoxazole-5-carbonylamino}-4-keto-5-(2,6-dichlorobenzoyloxy)-pentanoic acid]
- PARP cleavage (85 kDa-cleavage product) caused by Con A-induced apoptotic death of hepatic cells (PARP cleavage): gradually reduced as dose of compound 33 is increased
- viability at 0.4 µM (WI38 cells; Homo sapiens, WI-38, WI38 cells, Conc. 0.4 µM, read-out: viability ratio): 15.5%
- viability at 2 µM (WI38 cells; Homo sapiens, WI-38, WI38 cells, Conc. 2 µM, read-out: viability ratio): 64.4%
- viability at 10 µM (WI38 cells; Homo sapiens, WI-38, WI38 cells, Conc. 10 µM, read-out: viability ratio): 92.7%
- viability at 50 µM (WI38 cells; Homo sapiens, WI-38, WI38 cells, Conc. 50 µM, read-out: viability ratio): 100%
- viability ratio (WI38 cells; Conc. 50 µM, 50 µM): 100%
- viability ratio (WI38 cells; Conc. 50 µM, listed as Comp 33, 50 µM): 100.21%
- AST and ALT activity, difference to Con A/vehicle group ([1]; 4mg/kg compound 33, second experiment (AST p=0.2972, ALT p=0.1378)): did not reached at statistically significant level
- AST and ALT activities compared with ConA/vehicle group ([1]; 20 mg/kg compound 33 (AST p=0.0174, ALT p=0.0011)): definitely reduced
- AST activity by the compound itself (liver toxicity) ([1]; compound alone without Con A, first experiment, not statistically significant (p=0.1033)): slightly increased AST activity by itself
- serum AST and ALT activity elevated by ConA ([1]; i.p. twice, 1 hr before and 4h after Con A 20mg/kg i.v., blood at 24h, across doses): suppressed the elevated enzyme activities in a dose-dependent manner
- inhibition of recombinant caspase activity [2]: almost completely inhibited all tested caspase activity, only except for caspase 2
- apoptotic lesions in liver [3]: reduced dose-dependently
- cellular histology of liver [3]: gradually recovered with increasing dose
